According to US9511086B2, “Method for improving immune system function by administering agents that inhibit DNA-dependent protein kinase-directed apoptosis” (The Board of Trustees of the Leland Stanford Junior …, priority 2010, dated 2016):

How the values were obtained:
[1] = system: CD4+CD45RO− T cells from RA patients; experiment: T-cell apoptosis by flow cytometry staining for PI, RA T cells; type: cell-based, human
Description: FIG. 5. Inhibition of DNA-PKcs activity protects RA T cells from apoptosis. CD4+CD45RO− T cells were isolated from 6 control donors and 7 RA patients. Cells were maintained in culture without stimulation for 48 h and then were treated with the DNA-PKcs inhibitor IC86621 (50 nM, 100 nM) or vehicle for 24 h. Cells were harvested and (A) T-cell apoptosis was measured by flow cytometry staining for PI. Representative cytometric data from one patient and one control are shown. (B) Frequencies of PI-positive T-cells in the absence and presence of the DNA-PKcs inhibitor from 6 controls and 7 RA patients are presented as mean±SEM.
FIG. 6. Silencing of the DNA-PKcs gene reduces apoptosis in RA T cells. CD4+CD45RO− T cells were purified from 3 control donors and 3 RA patients and transfected with control or DNA-PKcs specific siRNA oligonucleotides by nucleofection. (A, B) Twenty-four hours after transfection, DNA-PKcs transcript levels were quantified by qPCR, and DNA-PKcs protein levels were detected by Western blotting. (C) T-cell apoptosis was analyzed by staining for PI. Representative data from one patient and one control are shown. (D) Cell apoptosis from 3 control and 3 RA samples are presented as mean±SEM.
FIG. 7. […] (A) CD4+CD45RO− T cells were isolated and cultured in the presence of the indicated enzyme inhibitors for 24 h. T-cell apoptosis was quantified through flow cytometry staining for PI. (B) Cells were maintained in culture without stimulation for 48 h and then were treated with the JNK inhibitor. PI-positive T cells were measured after 24 h of treatment with the JNK inhibitor II (5 μM or 10 μM) or vehicle. Frequencies of apoptotic T cells from 6 controls and 7 RA patients are presented as mean±SEM. (C) Representative flow cytometry results from one control and one patient. (D) Flow cytometry analysis of phosphorylated JNK levels in control and RA T cells after culturing without mitogenic stimulation for 72 h. Representative data from one patient and one control are presented. (E) Expression of pJNK protein in n=6 RA and n=6 control samples at 72 h is given as MFI of FITC-pJNK. (F) Flow cytometry analysis of phosphorylated JNK levels in freshly isolated control and RA naïve CD4 T cells. Expression of pJNK protein in n=7 RA and n=7 control samples at day 0 is given as MFI of FITC-pJNK. (G) Quantification of JNK and pJNK protein expression at 72 h by Western blotting. (H) Relative expression levels of pJNK were quantified by measuring band intensities adjusted by total JNK in 6 RA patients and 6 control donors. Data are presented as mean±SEM. (I) CD4+CD45RO− T cells were purified from RA donors and transfected with control or DNA-PKcs-specific siRNA oligonucleotides by nucleofection. Twenty-four hours after transfection, DNA-PKcs and pJNK protein levels were detected by Western blotting. A representative blot from three independent experiments is shown.
Peripheral blood mononuclear cells (PBMC) were separated from whole blood with Lymphocyte Separation Medium (Mediatech Inc., Herndon, Va.). CD45RO^− cells were negatively selected with microbeads (Miltenyi Biotec Inc., Auburn, Calif.), and the naïve CD4^+CD45RO^− population was subsequently selected with CD4 microbeads (autoMACS, Miltenyi Biotec Inc.).
CD4^+CD45RO^− T cells were maintained in a resting state in DMEM without mitogenic stimulation for three days. In selected experiments, T-cell homeostatic cytokines were supplemented. To test for the role of signaling networks in mediating apoptosis, the following inhibitors were added to the cultures at day 0: DNA-PKcs inhibitor IC86621 (Sigma-Aldrich, St. Louis, Mo.), JNK inhibitor II (Calbiochem, La Jolla, Calif.), p38 inhibitor (Alexis Biochemicals, Plymouth Meeting, Pa., SB203580), CaM inhibitor (Calbiochem), NE-KB inhibitor (Calbiochem), and AKT inhibitor (Calbiochem). […]

Bim = Bim protein level by flow cytometry in RA T cells; type: cell-based, human; conditions: treated vs untreated
Description: (§1) FIG. 8. The DNA-PKcs-JNK pathway upregulates the apoptogenic molecules Bim and Bmf in RA CD4+ T cells. CD4+CD45RO− T cells were isolated from the peripheral blood of 6 controls and 6 RA patients. Cells were maintained in culture without mitogenic stimulation for 72 h. (A) Puma, Noxa, Bim and Bmf transcript levels in freshly isolated cells were quantified by qPCR. Data are presented as mean±SEM. (B) Flow cytometry analysis of Bim levels in control and RA naïve T cells after 72 h of culture. Expression of Bim protein in n=5 RA and n=5 controls samples is given as MFI of Alexa Fluor 488 Bim. (C) Flow cytometry analysis of Bmf levels in control and RA naïve T cells. Expression of Bmf protein in n=6 RA and n=4 controls samples is given as MFI of PE Bmf. (D) Bcl-2 protein levels were analyzed by flow cytometry. Expression of Bcl-2 protein in n=6 RA and n=6 control samples is given as MFI of FITC Bcl-2. (E) Bim protein level in the absence and presence of the DNA-PKcs inhibitor were analyzed by flow cytometry in samples from 4 RA patients. […]
(§2) For intracellular staining, cells were fixed directly with 1.5% formaldehyde for 10 min at room temperature and resuspended in 90% methanol. […] Proteins or 8-oxoguanine expression were detected by an LSRII flow cytometer (BD Biosciences). Data were analyzed by FlowJo software (Tree Star Inc., Ashland, Oreg.). […]

Bmf = Bmf protein level by flow cytometry in RA T cells; type: cell-based, human; conditions: treated vs untreated
Description: as §1, §2

rheumatoid arthritis = conditions: cited from earlier work
IL-1R type I = molecular target: T1, IL-1R type I (Homo sapiens, UniProt P14778); conditions: cited from earlier work
T1 sequence (P14778 18-569): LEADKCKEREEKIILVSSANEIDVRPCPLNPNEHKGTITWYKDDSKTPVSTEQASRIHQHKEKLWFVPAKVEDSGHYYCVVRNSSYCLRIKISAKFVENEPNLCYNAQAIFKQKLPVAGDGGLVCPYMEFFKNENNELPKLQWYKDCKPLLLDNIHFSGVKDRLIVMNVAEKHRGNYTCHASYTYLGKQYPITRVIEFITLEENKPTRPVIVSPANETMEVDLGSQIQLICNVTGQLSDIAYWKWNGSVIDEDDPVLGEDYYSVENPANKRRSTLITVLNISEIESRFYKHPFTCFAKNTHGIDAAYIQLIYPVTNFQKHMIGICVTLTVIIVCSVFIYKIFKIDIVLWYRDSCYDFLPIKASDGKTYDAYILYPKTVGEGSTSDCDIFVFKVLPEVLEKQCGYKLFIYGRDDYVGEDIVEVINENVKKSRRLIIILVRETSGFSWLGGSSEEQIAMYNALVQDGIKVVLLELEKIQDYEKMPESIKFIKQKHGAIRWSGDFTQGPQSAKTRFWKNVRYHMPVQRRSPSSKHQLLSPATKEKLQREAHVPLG

TNFα = TNFα (Homo sapiens, UniProt P01375); conditions: cited from earlier work
TNFα, sequence (P01375 77-233 limits assumed): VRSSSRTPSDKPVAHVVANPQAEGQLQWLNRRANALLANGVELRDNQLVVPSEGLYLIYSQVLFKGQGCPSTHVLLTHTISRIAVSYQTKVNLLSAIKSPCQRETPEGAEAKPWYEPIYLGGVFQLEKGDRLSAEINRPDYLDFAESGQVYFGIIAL

[2] = system: CD4+CD45RO− T cells from RA patients and controls; experiment: T-cell apoptosis (PI) with homeostatic cytokines; type: cell-based, human; conditions: 72 h culture; IL-2 20 U/ml, IL-7 20 ng/ml, IL-15 10 ng/ml; similar in control and RA T cells
Description: FIG. 1. […] CD4+CD45RO− T cells were isolated from the peripheral blood of RA patients and controls. Cells were maintained in culture without mitogenic stimulation for 72 h. (A) T cells undergoing apoptosis were identified by Annexin V and 7-AAD staining in patient-derived and control samples. Data are given as mean±SEM from 6 patients and 6 controls. (B) Representative data from one patient and one control collected after 72 h are shown. (C) Cells were maintained in culture with IL-2 (20 U/ml), IL-7 (20 ng/ml), IL-15 (10 ng/ml), or a mixture of the three (Mix) for 72 h. T cells undergoing apoptosis were identified by PI staining. Data are given as mean±SEM from 7 patients and 5 controls. (D) DNA breaks were quantified by comet assay after 72 h. Data are given as mean±SEM of 7 patients and 6 controls with a minimum of 90 individual cells analyzed in each sample.
To quantify T-cell apoptosis, CD4^+CD45RO^− cells were washed and suspended in 500 μl FACS buffer supplemented with EasyComp Blank Particles (Spherotech, Lake Forest, Ill.). Uptake of PI (Sigma-Aldrich) was determined by flow cytometry. Apoptotic cells were detected with PE-Annexin V (BD Biosciences, San Jose, Calif.) and 7-AAD (BD Biosciences).

[3] = system: B cells in blood and tissue; conditions: cynomolgus monkeys; cited from earlier work

O=C1c2ccccc2-c2n[nH]c3cccc1c23 [JNK inhibitor II, anthra(1,9-cd)pyrazol-6(2H)-one]
T cell death in screen with panel of signal pathway inhibitors ([1]; RA T cells cultured with inhibitor for 24 h, PI staining): able to protect RA T cells from dying
death rate in dose-response experiments ([1]; RA T cells, 48 h culture then 5 μM or 10 μM for 24 h): normalize the death rate
effectiveness of 10 μM compared with 5 μM ([1]; RA T cells, PI-positive cells after 24 h of treatment): more effective
intracellular Bim levels (Bim): reduced
intracellular Bmf levels (Bmf): reduced

CN(Cc1cnc2nc(N)nc(N)c2n1)c1ccc(C(=O)N[C@@H](CCC(=O)O)C(=O)O)cc1 [MTX, Methotrexate]
patients having some response (rheumatoid arthritis): 70%

Anakinra: human recombinant IL-1 receptor antagonist
affinity of binding to IL-1R type I (IL-1R type I): same affinity as IL-1

Etanercept
affinity for TNFα of the dimeric receptor relative to the monomeric receptor (TNFα): 50-1000 fold

IL-15: growth-promoting, T-cell homeostatic cytokine
apoptosis rates / T-cell attrition [2]: prevented only one-third of the T-cell attrition

LymphoStat-B: fully human IgG1λ monoclonal antibody that neutralizes human BlyS
B cells in blood and tissue [3]: selectively reduces B cells in blood and tissue
toxicity [3]: no overt toxicity

B1: IL-7: growth-promoting, T-cell homeostatic cytokine (protein, UniProt P13232 26-177, looked up)
Interleukin-7: DCDIEGKDGKQYESVLMVSIDQLLDSMKEIGSNCLNNEFNFFKRHICDANKEGMFLFRAARKLRQFLKMNSTGDFDLHLLKVSEGTTILLNCTGQVKGRKPAALGEAQPTKSLEENKSLKEQKKLNDLCFLKRLLQEIKTCWNKILMGTKEH
apoptosis rates / T-cell attrition [2]: prevented only one-third of the T-cell attrition
